# Source: PMC9756503, “Pharmacodynamic properties for inhibition of cAMP- and cGMP elimination by pentoxifylline remain unaltered in vitro during hypothermia” (Scandinavian Journal of Trauma, Resuscitation and Emergency …, 2022)
# Like-named read-outs stand apart in the source and are kept apart here.
# Experiments:
# [1] = parameters: method as in PMID 26870389; conditions: review on cardiovascular effects; cited from earlier work
# Recombinant human PDE5 = biological target: T1, Recombinant human PDE5 (Homo sapiens, UniProt O76074); experiment: Inhibition of PDE5-mediated enzymatic breakdown of cGMP; type: biochemical; conditions: for Ki: Cheng-Prusoff; for [PDE5-inhibition]/[cGMP-efflux inhibition]: ratio between IC50-values
# T1 construct: purchased Sigma-Aldrich
# Experimental: (§1) Assessment of pentoxifyllines ability to inhibit the phosphodiesterase enzymes were performed by incubating cAMP or cGMP with seven different concentrations of pentoxifylline. The concentrations were increasing by a factor of 10 ranging from 1.00 nM to 1.00 mM. For PDE3 assessment, the incubation solution included cAMP and for PDE5 assessment it included cGMP. Experiments were performed in triplicates each day at three separate days - in total 9 parallels. The reaction was started by adding either a solution containing 0.016 units/µg protein of PDE3 (Abcam, Cambridge UK), or 0.022 units/µg protein of PDE5 (Sigma-Aldrich, St. Louis, USA), to the Eppendorf tubes. Control samples were free of drug and was either with or without PDE3 or PDE5. This was done to assure that only the relevant PDE was responsible for breakdown of the cyclic nucleotide, as no other enzyme nor cellular material was added to the incubations. The incubation time was 30 min. Reaction was stopped by adding methanol to the tubes. Internal standard of cGMP/GMP or cAMP/AMP (Sigma-Aldrich, St. Louis, MO, USA, Germany and Toronto Research Chemicals Inc., Ontario, Canada) were added to each sample. 5 samples contained only known concentrations of cGMP/GMP or cAMP/AMP and served as calibrators. Samples were analyzed for cGMP/GMP and cAMP/AMP content, using MS [14, 15].
# Quantification of cAMP/AMP, cGMP/GMP and pentoxifylline in PDE- and intracellular access experiments were performed with liquid chromatography tandem mass spectrometry (LC–MS/MS). Preparation of samples for LC–MS/MS-analysis is described in paragraphs above. […] For GMP the method was linear from 2 nM to at least 2000 nM (r^2 > 0.998), and 10 nM to at least 5000 nM for pentoxifylline (r^2 > 0.998).
# (§2) Analysis and graph production were performed in SigmaPlot 14.0 (Systat Software, San Jose, CA, USA.). Ability to inhibit the different elimination pathways, enzymes and efflux pumps, were calculated as IC50-values, as according to Chou. Ki-values were obtained by using the methods described by Cheng and Prustoff. Measurement of intracellular concentrations of drugs were adjusted for protein concentrations in each sample. The incubation concentrations were also adjusted for protein concentration in each sample to evaluate the access in percentage. Analysis of variance (ANOVA) with Holm-Sidak multiple comparison post-hoc test was performed to evaluate changes in IC50-values compared to baseline (37 °C) for all elimination pathways. The same analysis was performed for intracellular concentrations of pentoxifylline during hypothermia compared to baseline (37 °C). When data was not normally distributed ANOVA on ranks and Dunn`s post hoc test was performed. Data are presented as mean ± standard error of the mean (SEM). p-values were considered significant when < 0.05.
# ABCC5 = biological target: T2, ABCC5 (Homo sapiens, UniProt O15440); experiment: Inhibition of [3H]-cGMP efflux in erythrocyte inside-out vesicles; type: biochemical; conditions: for Ki: Cheng-Prusoff
# T2 construct: inside-out vesicles (IOV)s where erythrocytes from healthy, human donors were sampled; endogenous in cells; host or cells: inside-out vesicles from erythrocytes of healthy human donors
# T2 sequence (O15440 whole entry): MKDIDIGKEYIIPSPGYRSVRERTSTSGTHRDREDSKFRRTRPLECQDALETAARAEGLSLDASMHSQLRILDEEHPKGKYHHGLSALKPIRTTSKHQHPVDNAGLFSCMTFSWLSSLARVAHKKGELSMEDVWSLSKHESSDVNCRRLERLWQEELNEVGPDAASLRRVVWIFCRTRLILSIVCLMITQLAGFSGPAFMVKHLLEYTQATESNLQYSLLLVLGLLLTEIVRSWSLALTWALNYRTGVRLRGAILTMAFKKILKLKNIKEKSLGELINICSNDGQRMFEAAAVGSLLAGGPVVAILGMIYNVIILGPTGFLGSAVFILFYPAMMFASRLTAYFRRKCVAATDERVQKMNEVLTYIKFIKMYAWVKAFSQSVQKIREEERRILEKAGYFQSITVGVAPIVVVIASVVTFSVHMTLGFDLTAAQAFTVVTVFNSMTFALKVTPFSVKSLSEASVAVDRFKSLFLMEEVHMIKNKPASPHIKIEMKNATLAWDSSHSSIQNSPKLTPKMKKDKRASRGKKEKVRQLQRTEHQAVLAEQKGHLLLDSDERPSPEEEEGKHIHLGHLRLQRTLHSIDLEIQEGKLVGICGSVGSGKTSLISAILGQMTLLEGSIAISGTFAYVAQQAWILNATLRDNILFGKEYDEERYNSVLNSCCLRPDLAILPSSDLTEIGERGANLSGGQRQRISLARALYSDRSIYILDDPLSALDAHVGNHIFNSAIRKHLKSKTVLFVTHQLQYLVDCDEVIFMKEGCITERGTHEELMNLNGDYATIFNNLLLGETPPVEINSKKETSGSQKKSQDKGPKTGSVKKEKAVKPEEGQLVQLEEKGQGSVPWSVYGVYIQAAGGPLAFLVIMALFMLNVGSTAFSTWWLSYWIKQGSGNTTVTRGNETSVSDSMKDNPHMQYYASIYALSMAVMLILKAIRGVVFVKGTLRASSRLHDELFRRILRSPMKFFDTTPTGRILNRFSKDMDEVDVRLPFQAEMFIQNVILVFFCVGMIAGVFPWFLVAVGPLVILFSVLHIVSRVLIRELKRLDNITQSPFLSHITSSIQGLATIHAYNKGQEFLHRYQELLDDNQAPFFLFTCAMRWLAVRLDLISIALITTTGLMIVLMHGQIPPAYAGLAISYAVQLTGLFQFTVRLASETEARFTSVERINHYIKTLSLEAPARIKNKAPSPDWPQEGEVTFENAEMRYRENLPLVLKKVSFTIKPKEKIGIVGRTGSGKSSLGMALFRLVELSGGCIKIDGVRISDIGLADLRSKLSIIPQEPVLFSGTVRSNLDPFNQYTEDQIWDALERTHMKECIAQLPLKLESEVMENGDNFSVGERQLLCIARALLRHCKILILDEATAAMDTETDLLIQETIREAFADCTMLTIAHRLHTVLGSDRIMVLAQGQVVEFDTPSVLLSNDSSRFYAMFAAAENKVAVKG
# Experimental: (§3) Cellular efflux was estimated with inside-out vesicles (IOV)s where erythrocytes from healthy, human donors were sampled. Donors were pre-screened and only admitted as donors by Blodbanken UNN (Department of Immunohematology and Transfusion Medicine, University Hospital of North Norway) if they were healthy. The erythrocytes were separated from plasma by centrifugation and washed. Inside-out vesicles were prepared according to Orvoll et al. with minor modifications. Percentage IOV was verified using acetylcholinesterase accessibility test. Batches of IOVs used in the parallels were made 8 times, including blood from a total of 35 healthy donors.
# (§4) IOVs were then incubated with or without 2 mM ATP and 7 different concentrations of pentoxifylline increasing by a factor of 10 ranging from 1.00 nM to 1.00 mM. The incubation solutions also included radioactive labeled [^3H]-cGMP or [^3H]-cAMP (Perkin Elmer, Boston, MA, USA), at a concentration of respectively 2 µM and 20 µM. [^3H]-cAMP was used to assess ABCC4-inhibition and [^3H]-cGMP for ABCC5-inhibition. The assays were performed in triplicates at 3 different days: In total 9 parallels were performed to calculate results for each concentration of pentoxifylline at all temperatures. Incubation time of 60 min was chosen to ensure sufficient quality of the samples for each parallel. The transport was stopped by adding ice cold buffer. The IOVs were then filtered through a nitrocellulose membrane (Bio-Rad Laboratories, Feldkirchen Germany), and the membrane was dried. The dried membranes were later added scintillation fluid and radioactivity was measured using a Packard TopCount NXT (Packard, Downers Grove, IL, USA).
# as §2, with “Analysis of variance (ANOVA) with Holm-Sidak multiple comparison post-hoc test was performed to evaluate changes in IC50-values compared to baseline (37 °C) for all elimination pathways.” left out
# Recombinant human PDE3 = experiment: Inhibition of PDE3-mediated enzymatic breakdown of cAMP; type: biochemical; conditions: for Ki: Cheng-Prusoff; for [PDE3-inhibition]/[PDE5-inhibition] / [PDE3-inhibition]/[cAMP-efflux inhibition]: ratio between IC50-values
# Experimental: as §1
# Quantification of cAMP/AMP, cGMP/GMP and pentoxifylline in PDE- and intracellular access experiments were performed with liquid chromatography tandem mass spectrometry (LC–MS/MS). Preparation of samples for LC–MS/MS-analysis is described in paragraphs above.
# as §2, with “Analysis of variance (ANOVA) with Holm-Sidak multiple comparison post-hoc test was performed to evaluate changes in IC50-values compared to baseline (37 °C) for all elimination pathways.” left out
# ABCC4 = biological target: T3, ABCC4 (Homo sapiens, UniProt O15439); experiment: biochemical; type: biochemical; conditions: for Ki: Cheng-Prusoff, read-out: Ki for inhibition of cAMP-efflux; for [cAMP-efflux inhibition]/[cGMP-efflux inhibition]: ratio between IC50-values; for IC50: read-out: IC50 for inhibition of cAMP-efflux
# T3 construct: inside-out vesicles (IOV)s where erythrocytes from healthy, human donors were sampled; endogenous in cells; host or cells: inside-out vesicles from erythrocytes of healthy human donors
# T3 sequence (O15439 1-1325): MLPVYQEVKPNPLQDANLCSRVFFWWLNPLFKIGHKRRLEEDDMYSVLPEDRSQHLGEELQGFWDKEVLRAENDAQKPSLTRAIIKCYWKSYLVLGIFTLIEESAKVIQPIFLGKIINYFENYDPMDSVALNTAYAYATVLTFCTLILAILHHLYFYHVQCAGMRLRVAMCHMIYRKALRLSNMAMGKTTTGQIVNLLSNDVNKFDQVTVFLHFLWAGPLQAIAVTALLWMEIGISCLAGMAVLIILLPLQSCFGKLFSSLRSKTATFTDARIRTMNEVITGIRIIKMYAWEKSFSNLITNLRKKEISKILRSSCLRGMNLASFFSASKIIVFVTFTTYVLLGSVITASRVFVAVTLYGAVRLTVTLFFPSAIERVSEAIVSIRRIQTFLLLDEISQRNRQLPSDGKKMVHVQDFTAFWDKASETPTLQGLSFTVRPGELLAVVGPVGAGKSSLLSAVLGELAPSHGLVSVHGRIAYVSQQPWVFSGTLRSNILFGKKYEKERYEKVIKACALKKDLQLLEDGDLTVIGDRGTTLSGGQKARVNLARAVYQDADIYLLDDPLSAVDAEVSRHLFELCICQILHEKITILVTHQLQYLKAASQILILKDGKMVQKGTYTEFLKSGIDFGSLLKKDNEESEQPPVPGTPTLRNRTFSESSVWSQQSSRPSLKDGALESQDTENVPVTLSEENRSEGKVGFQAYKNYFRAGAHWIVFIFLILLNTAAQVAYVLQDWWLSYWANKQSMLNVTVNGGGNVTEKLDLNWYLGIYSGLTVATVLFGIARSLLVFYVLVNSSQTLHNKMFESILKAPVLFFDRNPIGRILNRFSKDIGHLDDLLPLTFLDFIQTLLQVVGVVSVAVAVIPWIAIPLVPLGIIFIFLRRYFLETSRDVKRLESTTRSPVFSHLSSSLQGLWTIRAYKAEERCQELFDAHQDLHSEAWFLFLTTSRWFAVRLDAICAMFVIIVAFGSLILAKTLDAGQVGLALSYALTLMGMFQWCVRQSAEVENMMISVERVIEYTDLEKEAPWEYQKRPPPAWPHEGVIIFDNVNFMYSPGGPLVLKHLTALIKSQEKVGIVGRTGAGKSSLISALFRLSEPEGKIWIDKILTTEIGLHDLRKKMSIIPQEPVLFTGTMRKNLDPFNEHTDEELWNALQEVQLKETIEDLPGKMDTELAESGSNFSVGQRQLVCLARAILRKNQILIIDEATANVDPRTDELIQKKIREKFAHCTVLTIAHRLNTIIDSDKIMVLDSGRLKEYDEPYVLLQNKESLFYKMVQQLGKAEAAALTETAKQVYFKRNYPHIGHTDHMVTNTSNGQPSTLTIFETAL
# Experimental: as §3, §4
# as §2, with “Analysis of variance (ANOVA) with Holm-Sidak multiple comparison post-hoc test was performed to evaluate changes in IC50-values compared to baseline (37 °C) for all elimination pathways.” left out
smiles,measurement,setting,value
CC(=O)CCCCn1c(=O)c2c(ncn2C)n(C)c1=O [pentoxifylline],clinical serum concentrations,[1],1 to 10 µM
same,IC50,Recombinant human PDE5; 20 °C,39400 ± 10900 nM
same,Ki,Recombinant human PDE5; 20 °C,10000 ± 2780 nM
same,[PDE5-inhibition]/[cGMP-efflux inhibition],Recombinant human PDE5; 20 °C,102
same,IC50,Recombinant human PDE5; 24 °C,25200 ± 6570 nM
same,Ki,Recombinant human PDE5; 24 °C,6400 ± 1670 nM
same,[PDE5-inhibition]/[cGMP-efflux inhibition],Recombinant human PDE5; 24 °C,50.2
same,IC50,Recombinant human PDE5; 28 °C,24300 ± 5580 nM
same,Ki,Recombinant human PDE5; 28 °C,6170 ± 1420 nM
same,[PDE5-inhibition]/[cGMP-efflux inhibition],Recombinant human PDE5; 28 °C,28.6
same,IC50,Recombinant human PDE5; 32 °C,15500 ± 753 nM
same,Ki,Recombinant human PDE5; 32 °C,3940 ± 191 nM
same,[PDE5-inhibition]/[cGMP-efflux inhibition],Recombinant human PDE5; 32 °C,21.4
same,IC50,Recombinant human PDE5; 34 °C,10700 ± 1920 nM
same,Ki,Recombinant human PDE5; 34 °C,2710 ± 487 nM
same,[PDE5-inhibition]/[cGMP-efflux inhibition],Recombinant human PDE5; 34 °C,12.0
same,IC50,Recombinant human PDE5; 37 °C,7700 ± 265 nM
same,Ki,Recombinant human PDE5; 37 °C,1950 ± 67 nM
same,[PDE5-inhibition]/[cGMP-efflux inhibition],Recombinant human PDE5; 37 °C,14.5
same,IC50,ABCC5; 20 °C,388 ± 70 nM
same,IC50,ABCC5; 24 °C,502 ± 315 nM
same,Ki,ABCC5; 24 °C,320 ± 183 nM
same,IC50,ABCC5; 28 °C,851 ± 281 nM
same,Ki,ABCC5; 28 °C,481 ± 159 nM
same,IC50,ABCC5; 32 °C,724 ± 206 nM
same,Ki,ABCC5; 32 °C,409 ± 116 nM
same,IC50,ABCC5; 34 °C,893 ± 401 nM
same,Ki,ABCC5; 34 °C,505 ± 226 nM
same,IC50,ABCC5; 37 °C,531 ± 338 nM
same,Ki,ABCC5; 37 °C,300 ± 191 nM
same,IC50,Recombinant human PDE3; 20 °C,31000 ± 9470 nM
same,Ki,Recombinant human PDE3; 20 °C,1420 ± 434 nM
same,[PDE3-inhibition]/[PDE5-inhibition],Recombinant human PDE3; 20 °C,0.788
same,IC50,Recombinant human PDE3; 24 °C,29200 ± 4720 nM
same,Ki,Recombinant human PDE3; 24 °C,1340 ± 216 nM
same,[PDE3-inhibition]/[PDE5-inhibition],Recombinant human PDE3; 24 °C,1.16
same,IC50,Recombinant human PDE3; 28 °C,22400 ± 6360 nM
same,Ki,Recombinant human PDE3; 28 °C,1020 ± 291 nM
same,[PDE3-inhibition]/[PDE5-inhibition],Recombinant human PDE3; 28 °C,0.920
same,[PDE3-inhibition]/[cAMP-efflux inhibition],Recombinant human PDE3; 28 °C,11.6
same,IC50,Recombinant human PDE3; 32 °C,26700 ± 4700 nM
same,Ki,Recombinant human PDE3; 32 °C,1220 ± 215 nM
same,[PDE3-inhibition]/[PDE5-inhibition],Recombinant human PDE3; 32 °C,1.72
same,[PDE3-inhibition]/[cAMP-efflux inhibition],Recombinant human PDE3; 32 °C,13.3
same,IC50,Recombinant human PDE3; 34 °C,14200 ± 1510 nM
same,Ki,Recombinant human PDE3; 34 °C,651 ± 69 nM
same,[PDE3-inhibition]/[PDE5-inhibition],Recombinant human PDE3; 34 °C,1.33
same,[PDE3-inhibition]/[cAMP-efflux inhibition],Recombinant human PDE3; 34 °C,3.94
same,IC50,Recombinant human PDE3; 37 °C,15800 ± 4250 nM
same,Ki,Recombinant human PDE3; 37 °C,723 ± 195 nM
same,[PDE3-inhibition]/[PDE5-inhibition],Recombinant human PDE3; 37 °C,2.05
same,[PDE3-inhibition]/[cAMP-efflux inhibition],Recombinant human PDE3; 37 °C,11.9
same,Ki,ABCC4; 28 °C,918 ± 465 nM
same,[cAMP-efflux inhibition]/[cGMP-efflux inhibition],ABCC4; 28 °C,2.27
same,IC50,ABCC4; 28 °C,1930 ± 1110 nM
same,Ki,ABCC4; 32 °C,1160 ± 526 nM
same,[cAMP-efflux inhibition]/[cGMP-efflux inhibition],ABCC4; 32 °C,2.78
same,IC50,ABCC4; 32 °C,2010 ± 819 nM
same,Ki,ABCC4; 34 °C,2030 ± 1460 nM
same,[cAMP-efflux inhibition]/[cGMP-efflux inhibition],ABCC4; 34 °C,4.04
same,IC50,ABCC4; 34 °C,3610 ± 2590 nM
same,Ki,ABCC4; 37 °C,805 ± 343 nM
same,[cAMP-efflux inhibition]/[cGMP-efflux inhibition],ABCC4; 37 °C,2.50
same,IC50,ABCC4; 37 °C,1330 ± 566 nM
same,Inhibition of cAMP-efflux (ABCC4-activity),ABCC4; temperatures below 28 °C (24 and 20 °C),no inhibition
